“Also recorded” adds a separate entry of the source. Read-outs that look alike come from different tables or passages of the source.
How the values were obtained:
mice [1] = assay: four-plate test; assay type: in vivo, mice (EVIC CEBA strain)
Procedure: (§1) The following text summarises a part of the results of the tests which were carried out with the products according to the invention, these products (unless otherwise stated) being administered intraperitoneally, in suspension in a gum solution (gum arabic), in a volume of 20 ml/kg in the case of mice and of 5 ml/kg in the case of rats.
(§2) The test is carried out on batches of 10 sensitive mice (EVIC CEBA strain), 30 minutes after the administration of CRL 40,373.
(§3) Batches of 10 mice are subjected to the test thirty minutes after having received CRL 40,385.

mice [2] = assay: traction (motor incoordination); assay type: in vivo, mice (EVIC CEBA strain)
mice [3] = assay: spontaneous motility (actimeter); assay type: in vivo
Procedure: as §1
Thirty minutes after having been given CRL 40,373, the mice (6 per dose, 12 comparison animals) are placed in an actimeter, where their motility is recorded for half an hour.
Thirty minutes after having been given CRL 40,385, the mice are placed in actimeters where their motility is recorded for half an hour.

central nervous system = assay: psychopharmacological study / behaviour; assay type: in vivo, mice; details: for reactivity: mice
man = assay: clinical use in man; assay type: in vivo
mice [4] = assay: interaction with reserpine (hypothermia, ptosis); assay type: in vivo; details: i.p.
mice [5] = assay: inter-group aggressiveness (number of fights); assay type: in vivo; details: mice, i.p.; for aggressiveness: large/high dose
Procedure: as §1
After three weeks' residence in each of the halves of a cage divided by an opaque partition, the mice receive CRL 40,373 thirty minutes before being brought together by withdrawing the partition.
After 18 days' residence on either side of a partition separating their cage in the middle, groups of 3 mice receive CRL 40,385 and are brought together half an hour later by withdrawing the partition, and the number of fights which take place in the course of 15 minutes is noted.

mice [6] = assay: toxicity (isolated mice, intraperitoneal); assay type: in vivo
Procedure: as §1

mice [7] = assay: interaction with oxotremorine (temperature, trembling, peripheral cholinergic symptoms); assay type: in vivo; details: mice, i.p.
mice [8] = assay: motility reduced by hypoxia treatment (motor recovery); assay type: in vivo; details: mice, i.p.
mice [9] = assay: motility reduced by habituation to a cage (residual motility); assay type: in vivo; details: i.p.
Procedure: as §1
Mice which have remained for 18 hours in the actimeters are given CRL 40,373. They are immediately replaced in their cages and, after a period of half an hour, their motility is recorded for 30 minutes (6 animals per dose, 12 comparison animals).
After remaining for 18 hours in the actimeters, the mice receive CRL 40,385. Immediately afterwards they are replaced in their cage and half an hour afterwards the recording of the motility starts and is continued for 30 minutes.

rats [10] = assay: interaction with amphetamine (stereotypies in rats); assay type: in vivo
Procedure: as §1
30 minutes after the administration of CRL 40,373, amphetamine is injected intraperitoneally at a dose of 2 mg/kg.
Thirty minutes after the administration of CRL 40,385 the rats are given an intraperitoneal injection of 2 mg/kg of amphetamine (6 animals per dose).

rats [11] = assay: interaction with apomorphine (stereotype behaviour in rats); assay type: in vivo
Procedure: as §1
Batches of six rats are each given a subcutaneous injection of apomorphine (0.5 mg/kg) 30 minutes after the administration of CRL 40,373.
Batches of 6 rats are given a subcutaneous injection of 0.5 mg/kg of apomorphine 30 minutes after the administration of CRL 40,385.

rats [12] = assay: prolonged conditioning to take avoiding action (shuttle box); assay type: in vivo
Text: Rats placed in a shuttle box are conditioned to avoid an electric shock by changing sides. The shock is preceded by a sound and light stimulus lasting 3 seconds, which ceases when sides are changed or after 8 seconds. The sequence is repeated every 20 seconds. Animals conditioned for several tens of minutes show a percentage of avoidance which is close to 100%. They continue to be subjected to the stimulus […] and gradually they reach a state in which they are no longer able to change sides during the period of 3 seconds during which no shock is delivered.
As a first approximation, such an effect can be likened to a resumption of conditioned activity in a tired animal.
Rats placed in a "shuttle box" are conditioned to avoid an electric shock lasting 5 seconds, by changing sides. The shock is preceded, for 3 seconds, by a sound and light stimulus which ceases when the rat changes side, or at the end of 8 seconds. The sequence repeats every 20 seconds. […] They continue to be subjected to the stimulus every 20 seconds and gradually they no longer succeed in avoiding the shock.
CRL 40,438 is then administered and any resumption of the avoidance movements is followed until the effect ceases.

mice [13] = assay: electrical shock (convulsing effects); assay type: in vivo, mice (EVIC CEBA strain); details: mice, i.p.
Procedure: as §1, §2, §3

Q: Which “number of incorrect moves (four-plate test)” value (mice [1]; gastric administration, 512 to 32 mg/kg (and possibly less)) does the source give for `COc1ccc(C[S+]([O-])CC(=O)NO)cc1` (centres unmarked) [CRL 40,498, p-Methoxybenzyl-sulphinyl-acetohydroxamic acid] here?
A: an increase in the number of incorrect moves

Q: What about the “number of incorrect moves (four-plate test)” value (mice [1]; i.p., 512 to 2 mg/kg) of the same molecule?
A: an increase in the number of incorrect moves

Q: And the motor incapacity (mice [2]; high dose)?
A: without motor incapacity

Q: What about the spontaneous motility (mice [3]; mice, high dose) of the same molecule?
A: reduction in motility

Q: And the “body temperature effect (product alone)” value (central nervous system; high dose)?
A: hypothermia

Q: What about the “sedation / sedative effect” value (central nervous system; high dose(s)) of the same molecule?
A: sedation

Q: What about the reactivity (central nervous system; high dose) of the same molecule?
A: reduction in motility, in aggressiveness and in reactivity

Q: What about the clinical result (man; pill 100 mg, 2 pills per day) of the same molecule?
A: good results clinically as an anxiolytic agent

Q: And the reserpine-induced hypothermia (mice [4])?
A: partial antagonism to reserpine-induced hypothermia

Q: And the reserpine-induced ptosis (mice [4])?
A: without alteration of the ptosis

Q: And the aggressiveness (mice [5])?
A: reduction in motility, in aggressiveness

Q: And the “LD-O (maximum non-lethal dose)” value (mice [6]; mice, i.p.)?
A: greater than 1,204 mg/kg

Q: And the symptoms / behaviour (mice [6]; mouse, in vivo, ip, 256 mg/kg)?
A: sedation, depressed respiration and reaction to the touch

Q: And the “temperature (oxotremorine-induced hypothermia)” value (mice [7])?
A: without alteration of the other hypothermia studied

Q: And the “motor recovery after hypoxia/anoxia by pressure reduction” value (mice [8])?
A: a discrete stimulant effect on the motility

Q: `O=C(CC(=O)N1c2ccccc2CCc2ccccc21)NO` [CRL 40,471, 5-(10,11-Dihydro-dibenz[b,f]azepino)-carbonylacetohydroxamic acid] was tested. Which spontaneous motility (mice [3]; mice, i.p., 512 mg/kg) did it give?
A: very greatly reduces the spontaneous motility of mice

Q: And the “psychopharmacological profile / conclusion” value (central nervous system; mouse, in vivo)?
A: sedative activity

Q: What about the clinical result (man; tablet 0.250 mg, 2 tablets per day) of the same molecule?
A: good results clinically as a sedative

Q: And the reserpine-induced hypothermia (mice [4])?
A: moderate antagonism against reserpine-induced hypothermia

Q: What about the “motility reduced by habituation to the cage” value (mice [9]) of the same molecule?
A: does not cause a resumption of the motor activity in mice habituated to their cage

Q: And the inter-group aggressiveness (mice [5])?
A: an effect of the anti-aggressive type appears to manifest itself in the absence of any hypomotility

Q: What about the aggressiveness (mice [5]) of the same molecule?
A: reduces the intra-specific aggressiveness in mice

Q: What about the “LD-O (maximum non-lethal dose)” value (mice [6]; mouse, in vivo, ip) of the same molecule?
A: greater than 1,024 mg/kg

Q: What about the “motor recovery after hypoxia/anoxia by pressure reduction” value (mice [8]) of the same molecule?
A: does not improve the motor recovery in mice

Q: What about the “motor recovery after hypoxia/anoxia by pressure reduction” value (mice [8]; 512 mg/kg) of the same molecule?
A: motor recovery comparable to that of the comparison mice

Q: And the amphetamine-induced stereotypies (rats [10]; rats, i.p.)?
A: does not alter the stereotypies induced by amphetamine

Q: And the apomorphine-induced stereotypies (rats [11]; rats, i.p.)?
A: does not alter the stereotypies induced by amphetamine and by apomorphine

Q: What does the source list for `CC(C(=O)NO)C(=O)N(c1ccccc1)c1ccccc1` (centres unmarked) [CRL 40,438, 2-(N,N-Diphenylcarbamoyl)-propionohydroxamic acid]?
A: resumption of avoiding actions (prolonged avoidance test) (rats [12]): an effect of the "anti-fatigue" type; resumption of avoiding actions (prolonged avoidance test) (rats [12]; i.p., 64, 128 and 256 mg/kg): causes a resumption of the avoidance behaviour; spontaneous motility (mice [3]; i.p.): moderate increase in the spontaneous motor activity; stereotype movements (product alone) (central nervous system; high dose): presence, at a high dose, of stereotype movements; reactivity (central nervous system): hyper-reactivity in mice; psychopharmacological profile / conclusion (central nervous system; mouse, in vivo): effects of the excitation-inducing type; also recorded: activity of the anti-depressant type or of the psychostimulant type; reserpine-induced hypothermia (mice [4]): moderately opposes hypothermia; reserpine-induced ptosis (mice [4]): moderately opposes hypothermia and ptosis induced by reserpine; motility reduced by habituation to the cage (mice [9]): very marked stimulant effect where the motility has been reduced by habituation to the cage; aggressiveness (mice [5]): reduces the aggressive behaviour of mice; LD-O (maximum non-lethal dose) (mice [6]; mice, i.p.): greater than 1,024 mg/kg; oxotremorine-induced trembling (mice [7]): moderately opposes hypothermia and ptosis induced by reserpine, and the trembling movements caused by oxotremorine; amphetamine-induced stereotypies (rats [10]; high dose): boosting of the stereotypies induced by apomorphine and by amphetamine; apomorphine-induced stereotypies (rats [11]; high dose): boosting of the stereotypies induced by apomorphine

Q: Which results are given for `CCCCC(CCCC)(CCCC)C(=O)NO` [CRL 40,373, Tributylacetohydroxamic acid]?
A: number of incorrect moves (four-plate test) (mice [1]; mice, i.p.): does not cause an increase in the number of incorrect moves; motor incoordination / incapacity (mice [2]; i.p.): does not bring about any major motor incoordination; spontaneous motility (mice [3]; mice, i.p., 128 and 512 mg/kg): causes a reduction in the (spontaneous) motor activity of the mice; convulsing effects of the electric shock (mice [13]): does not modify the convulsing effects of the electric shock; psychopharmacological profile / conclusion (central nervous system; mouse, in vivo): sedative agent; clinical result (man; tablet 100 mg, 1 to 3 tablets per day): used clinically with success as a sedative; reserpine-induced hypothermia (mice [4]): not modified; reserpine-induced ptosis (mice [4]): not modified; motility reduced by habituation to the cage (mice [9]): does not cause a resumption of the exploring activity of mice accustomed to their environment; aggressiveness (mice [5]): reduces the number of fights; mortality (mice [6]; isolated mice, i.p., 64, 128, 256, 512 and 1,024 mg/kg): No mortality whatsoever; oxotremorine-induced trembling (mice [7]): no significant influence on the trembling caused by oxotremorine; temperature (oxotremorine-induced hypothermia) (mice [7]; 128 and 512 mg/kg, oxotremorine 0.5 mg/kg i.p.): exerts a hypothermia-inducing effect and aggravates the lowering of the temperature produced by oxotremorine; peripheral cholinergic symptoms of oxotremorine (mice [7]; high doses (128 and 512 mg/kg)): increases the hypersalivation and hyperlacrymation produced by oxotremorine; motor recovery after hypoxia/anoxia by pressure reduction (mice [8]): does not produce an improvement in the motor recovery of mice; amphetamine-induced stereotypies (rats [10]; rats, i.p.): inhibits the amphetamine-induced stereotypies, this inhibition being proportional to the doses; apomorphine-induced stereotypies (rats [11]; rats, i.p.): not influenced

Q: With `O=C(CCN1c2ccccc2Sc2ccccc21)N[O-].[Na+]` as the molecule, how does the motor incapacity (mice [2]; mice, i.p., high doses (32 and 128 mg/kg)) read?
A: substantial motor incapacity

Q: And the motor activity (mice [3]; mice, i.p., from 8 mg/kg upwards)?
A: reduction of the motor activity

Q: And the “lethal effects of the electric shock” value (mice [13]; high doses (32 and 128 mg/kg))?
A: increase in the lethal effects of the electric shock

Q: And the “body temperature effect (product alone)” value (central nervous system; mouse, in vivo)?
A: hypothermia-inducing agent

Q: And the reserpine-induced ptosis (mice [4]; 128 and 32 mg/kg)?
A: aggravates the ptosis induced by reserpine

Q: What about the reserpine-induced hypothermia (mice [4]; high dose) of the same molecule?
A: aggravates the hypothermia induced by reserpine

Q: And the “motility reduced by habituation to the cage” value (mice [9])?
A: not improved

Q: What about the “LD-O (maximum non-lethal dose)” value (mice [6]; mice, i.p.) of the same molecule?
A: greater than 256 mg/kg

Q: What about the time to death (mice [6]; mice, i.p., 512 mg/kg) of the same molecule?
A: 24 h

Q: And the time to death (mice [6]; mice, i.p., 1,024 mg/kg)?
A: 0.583 h

Q: And the oxotremorine-induced trembling (mice [7])?
A: does not alter the intensity or duration of the trembling movements induced by oxotremorine

Q: And the “temperature (oxotremorine-induced hypothermia)” value (mice [7])?
A: contributes its effect to the hypothermia-inducing action of oxotremorine

Q: And the “motor recovery after hypoxia/anoxia by pressure reduction” value (mice [8])?
A: not improved

Source: patent publication US4151300A, “Acetohydroxamic acids” (Laboratoire L. Lafon, priority 1976, dated 1979)
